From patent US20200079773A1, “CARBOXYLIC ACID DERIVATIVES OF PYRIDOQUINAZOLINES USEFUL AS PROTEIN KINASE INHIBITORS” (ONCOSTELLAE, S.L., priority 2017, published 2020) come the findings set out here.

pIC50: −log10 of the molar value. Some results are limits rather than exact numbers.

A word on the pIC50: it is −log10 of the IC50, conventionally taken in molar units.

Holding throughout (format): biochemical
The target of one test is T1, TYK2 (Homo sapiens, UniProt P29597).
T1 construct: purchased Carna Biosciences 08-147
T1 sequence (P29597 871-1187 limits assumed): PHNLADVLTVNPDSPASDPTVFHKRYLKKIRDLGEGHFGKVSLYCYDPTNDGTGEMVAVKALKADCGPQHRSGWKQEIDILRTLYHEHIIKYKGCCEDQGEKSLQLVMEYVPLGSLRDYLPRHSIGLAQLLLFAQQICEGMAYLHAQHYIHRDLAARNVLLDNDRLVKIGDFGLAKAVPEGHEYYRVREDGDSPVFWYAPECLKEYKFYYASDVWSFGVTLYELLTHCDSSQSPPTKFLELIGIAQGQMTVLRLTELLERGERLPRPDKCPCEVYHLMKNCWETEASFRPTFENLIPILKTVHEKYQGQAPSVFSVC
In words: Functional assay of protein kinases (Caliper mobility shift), TYK2. Particulars: ATP 20 μM, 45 min incubation. Here is the method: (§1) Functional Assays of Protein Kinases
(§2) The functional assays of protein kinases were carried out in 384-well plates using a final volume of 30 μl. […] The reaction was reads in a “Caliper EzReader LabChip 3000” (Caliper, Hopkinton, Mass.) reader, based on electrophoretic mobility of the fluorescent substrate and the phosphorylated product.
(§3) The inhibition percentages were calculated by comparison between control reactions, for 100% of inhibition and reactions with only DMSO for 0% of inhibition.

The target of the next test is T2, JAK1 (Homo sapiens, UniProt P23458).
T2 construct: purchased Carna Biosciences 08-144
Put plainly: Functional assay of protein kinases (Caliper mobility shift), JAK1. The note with it: ATP 100 μM, 150 min incubation. Here is the method: as §1, §2, §3

Another test has as its target T3, Human MLK3 (Homo sapiens, UniProt Q16584).
T3 construct: purchased Reaction Biology MLK3
In words: MLK3 activity inhibition test (Reaction Biology kit, 33P ATP filter assay). The note with it: MBP 10 μM, ATP 10 μM. As to the method:
MLK3 Activity Inhibition Test
Activity test was carried out using the kit from Reaction Biology (CAT #: MLK3). The test uses enzyme Human MLK3 and substrates are MBP (Myelin Basic Protein, HGNC ID:6925) 10 μM and ATP 10 μM. Other reagents are the following: Base Reaction buffer; 20 mM Hepes (pH 7.5), 10 mM MgCl2, 1 mM EGTA, 0.02% Brij35, 0.02 mg/ml BSA, 0.1 mM Na3VO4, 2 mM DTT, 1% DMSO.
The reaction was carried out following the instructions of manufacturer. Briefly, kinase/substrate pairs were prepared in reaction buffer. Compounds were delivered into the reaction, followed 20 minutes later by addition of a mixture of ATP (Sigma, St. Louis Mo.) and ^33P ATP (Perkin Elmer, Waltham Mass.) to a final concentration of 10 μM. Reactions were carried out at room temperature for 120 min, followed by spotting of the reactions onto P81 ion exchange filter paper (Whatman Inc., Piscataway, N.J.). Unbound phosphate was removed by extensive washing of filters in 0.75% phosphoric acid. […] IC50 values and curve fits were obtained using Prism (GraphPad Software).

A further test deals with T4, JAK2 (Homo sapiens, UniProt O60674).
T4 construct: purchased Carna Biosciences 08-045
In words: Functional assay of protein kinases (Caliper mobility shift), JAK2. Particulars: ATP 300 μM, 30 min incubation. As to the method: as §1, §2, §3

Another test concerns the target T5, JAK3 (Homo sapiens, UniProt P52333).
T5 construct: purchased Carna Biosciences 08-046
Put plainly: Functional assay of protein kinases (Caliper mobility shift), JAK3. The note with it: ATP 8 μM, 30 min incubation. As to the method:
as §1, §2, §3

T3 sequence (Q16584 whole entry): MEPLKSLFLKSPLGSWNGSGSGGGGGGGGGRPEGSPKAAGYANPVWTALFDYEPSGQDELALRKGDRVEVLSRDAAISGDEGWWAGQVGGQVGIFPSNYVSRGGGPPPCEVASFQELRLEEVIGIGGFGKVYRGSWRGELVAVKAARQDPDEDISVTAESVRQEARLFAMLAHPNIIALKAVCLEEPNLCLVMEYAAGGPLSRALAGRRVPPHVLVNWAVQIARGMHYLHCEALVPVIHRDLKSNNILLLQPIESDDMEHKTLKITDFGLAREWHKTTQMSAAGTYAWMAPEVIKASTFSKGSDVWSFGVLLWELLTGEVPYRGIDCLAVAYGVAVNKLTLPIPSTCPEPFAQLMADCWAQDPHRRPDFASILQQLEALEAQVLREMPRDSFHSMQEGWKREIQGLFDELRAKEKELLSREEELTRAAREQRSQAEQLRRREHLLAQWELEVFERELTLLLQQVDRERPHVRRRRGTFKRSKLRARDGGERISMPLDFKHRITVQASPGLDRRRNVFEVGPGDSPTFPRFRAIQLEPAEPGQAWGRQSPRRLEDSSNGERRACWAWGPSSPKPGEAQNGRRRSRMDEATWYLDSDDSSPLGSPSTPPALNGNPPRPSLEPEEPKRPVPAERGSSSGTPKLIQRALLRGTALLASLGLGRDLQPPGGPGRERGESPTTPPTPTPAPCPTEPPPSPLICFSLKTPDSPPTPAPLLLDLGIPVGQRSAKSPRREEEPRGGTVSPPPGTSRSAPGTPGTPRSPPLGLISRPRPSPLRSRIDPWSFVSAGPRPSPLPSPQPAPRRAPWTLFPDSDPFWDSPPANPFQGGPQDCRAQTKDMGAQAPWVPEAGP
T2 sequence (P23458 850-1154 limits assumed): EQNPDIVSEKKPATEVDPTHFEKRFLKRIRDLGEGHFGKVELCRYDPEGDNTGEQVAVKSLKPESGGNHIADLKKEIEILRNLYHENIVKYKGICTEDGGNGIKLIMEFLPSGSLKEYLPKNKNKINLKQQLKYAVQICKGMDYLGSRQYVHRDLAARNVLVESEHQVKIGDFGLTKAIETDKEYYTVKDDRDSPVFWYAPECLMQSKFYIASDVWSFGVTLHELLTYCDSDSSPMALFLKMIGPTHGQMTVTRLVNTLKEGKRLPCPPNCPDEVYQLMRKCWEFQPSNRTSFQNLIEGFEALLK
T4 sequence (O60674 826-1132 limits assumed): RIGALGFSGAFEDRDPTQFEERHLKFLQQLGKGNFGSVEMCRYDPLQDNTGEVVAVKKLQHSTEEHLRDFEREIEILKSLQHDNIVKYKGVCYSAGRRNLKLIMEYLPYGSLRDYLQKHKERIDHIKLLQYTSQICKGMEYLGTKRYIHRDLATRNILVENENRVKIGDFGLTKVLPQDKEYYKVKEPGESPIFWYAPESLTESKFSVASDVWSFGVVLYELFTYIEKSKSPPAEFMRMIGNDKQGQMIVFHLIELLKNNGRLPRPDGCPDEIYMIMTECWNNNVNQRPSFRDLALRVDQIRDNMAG
T5 sequence (P52333 795-1124 limits assumed): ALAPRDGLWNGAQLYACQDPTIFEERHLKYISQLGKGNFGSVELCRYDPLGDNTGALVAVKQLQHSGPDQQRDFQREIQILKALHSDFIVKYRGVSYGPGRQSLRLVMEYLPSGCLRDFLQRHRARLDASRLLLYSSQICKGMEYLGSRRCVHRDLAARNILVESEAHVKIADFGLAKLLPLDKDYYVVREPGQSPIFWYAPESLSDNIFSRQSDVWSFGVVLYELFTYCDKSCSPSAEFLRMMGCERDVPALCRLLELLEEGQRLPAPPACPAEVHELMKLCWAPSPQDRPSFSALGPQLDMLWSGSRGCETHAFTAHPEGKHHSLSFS

As for `O=C(N[C@H]1CC[C@@H](C(=O)O)CC1)c1cccn2c(=O)c3cc(N4CCOCC4)ccc3nc12` [Example 14, (1S,4S)-4-(2-morpholino-11-oxo-11H-pyrido[2,1-b]quinazoline-6-carboxamido)cyclohexane-1-carboxylic acid], the pIC50 at TYK2 is above 7.00; on JAK1, at most 6.00; against Human MLK3 it was above 7.00; on JAK2 it was at most 6.00; on JAK3, above 7.00.

For the molecule `Cc1cc(C(=O)N[C@H]2CC[C@@H](C(=O)O)CC2)c2nc3ccccc3c(=O)n2c1` [Example 11, (1S,4S)-4-(8-methyl-11-oxo-11H-pyrido[2,1-b]quinazoline-6-carboxamido)cyclohexane-1-carboxylic acid], the pIC50 was 6.00 to 7.00 on TYK2, at most 6.00 on JAK1, at most 6.00 at JAK2 and at most 6.00 at JAK3.

With `Cc1cc(C(=O)NC2CCC(C(=O)O)CC2)c2nc3ccccc3c(=O)n2c1` (stereo not drawn) [Example 10, 4-(8-methyl-11-oxo-11H-pyrido[2,1-b]quinazoline-6-carboxamido)cyclohexane-1-carboxylic acid], the pIC50 at TYK2 was above 7.00; at JAK1, at most 6.00; against Human MLK3, at most 6.00; at JAK2, at most 6.00; at JAK3, 6.00 to 7.00.

As to `COc1ccc2nc3c(C(=O)NC4CCC(C(=O)O)CC4)cccn3c(=O)c2c1` (stereo not drawn) [Example 20, 4-(2-methoxy-11-oxo-11H-pyrido[2,1-b]quinazoline-6-carboxamido)cyclohexane-1-carboxylic acid], the pIC50 on TYK2 was 6.00 to 7.00; on Human MLK3 it was above 7.00; at JAK3, above 7.00.

In the case of `O=C(NC1CCC(C(=O)O)CC1)c1cccn2c(=O)c3cc(Cl)ccc3nc12` (stereo not drawn) [Example 23, 4-(2-chloro-11-oxo-11H-pyrido[2,1-b]quinazoline-6-carboxamido)cyclohexane-1-carboxylic add], the pIC50 on TYK2 was 6.00 to 7.00; at JAK1, at most 6.00; at JAK2 it was at most 6.00; at JAK3, 6.00 to 7.00.

Take `O=C(NC12CCC(C(=O)O)(CC1)CC2)c1cccn2c(=O)c3cc(C4CC4)ccc3nc12` [Example 6, 4-(2-cyclopropyl-11-oxo-11H-pyrido[2,1-b]quinazoline-6-carboxamido)bicyclo[2.2.2]octane-1-carboxyli acid]: the pIC50 is 6.00 to 7.00 on TYK2; at most 6.00 on JAK1; above 7.00 against Human MLK3; at most 6.00 at JAK2; 6.00 to 7.00 on JAK3.

Consider `O=C(N[C@H]1CC[C@@H](C(=O)O)CC1)c1cccn2c(=O)c3cc(C4CC4)ccc3nc12` [Example 3, (1S,4S)-4-(2-cyclopropyl-11-oxo-11H-pyrido[2,1-b]quinazoline-6-carboxamido)cyclohexane-1-carboxylic acid], for which the pIC50 at TYK2 is above 7.00; at JAK1 it was at most 6.00; against Human MLK3, above 7.00; at JAK2 it was at most 6.00; at JAK3 it was above 7.00.

In the case of `O=C(NC12CCC(C(=O)O)(CC1)C2)c1cccn2c(=O)c3cc(C4CC4)ccc3nc12` [Example 7, 4-(2-cyclpropyl-11-oxo-11H-pyrido[2,1-b]quinazoline-6-carboxamido)bicyclo[2.2.1]heptane-1-carboxylic acid], the pIC50 on TYK2 is 6.00 to 7.00; at JAK1 it was at most 6.00; on JAK2 it was at most 6.00; at JAK3 it was 6.00 to 7.00.

`O=C(NC1CCC(C(=O)O)CC1)c1cccn2c(=O)c3cc(Br)ccc3nc12` (stereo not drawn) [Example 24, 4-(2-bromo-11-oxo-11H-pyrido[2,1-b]quinazoline-6-carboxamido)cyclohexane-1-carboxylic acid]: the pIC50 on TYK2 was 6.00 to 7.00; on JAK1, at most 6.00; at JAK2, at most 6.00; on JAK3, 6.00 to 7.00.
